Consider 6 molecules from US20110183999A1, “NOVEL POLYMORPHIC FORMS OF METHYL CARBAMATE” (BAYER SCHERING PHARMA AKTIENGESELLSCHAFT, priority 2009, published 2011).

Data set [1] is described as follows: Thermogravimetry (TGA) mass loss. The data set is classed as physicochemical. As to conditions: heating rate 10 Kmin^−1, open platinum crucibles, nitrogen purge. How it is done: The TGA measurements were carried out using TGA7 and Pyris-1-TGA thermobalances from Perkin-Elmer using a heating rate of 10 Kmin^−1. The measurements were carried out in open platinum crucibles, the purge gas used was nitrogen. There was no sample preparation.

Data set [2] can be described thus: Thermodynamic and storage stability of the solid form. The data set is classed as physicochemical. As to conditions: also after processing to suspensions.

In data set [1], `COC(=O)Nc1c(N)nc(-c2nn(Cc3ccccc3F)c3ncccc23)nc1N` [modification I, methyl {4,6-diamino-2-[1-(2-fluorobenzyl)-1H-pyrazolo[3,4-b]pyridin-3-yl]pyrimidin-5-yl}-carbamate] came in with a Mass loss of less than 0.5 % by weight. The “Stability of the solid form (thermodynamic / storage)” value in data set [2] was “thermodynamically stable and storage-stable even after processing to suspensions”.

Take `COC(=O)Nc1c(N)nc(-c2nn(Cc3ccccc3F)c3ncccc23)nc1N` [modification II, methyl {4,6-diamino-2-[1-(2-fluorobenzyl)-1H-pyrazolo[3,4-b]pyridin-3-yl]pyrimidin-5-yl}carbamate]: in data set [1], the Mass loss is reported as less than 0.5 % by weight.

Regarding `COC(=O)Nc1c(N)nc(-c2nn(Cc3ccccc3F)c3ncccc23)nc1N` [mesomorphous, Methyl {4,6-diamino-2-[1-(2-fluorobenzyl)-1H-pyrazolo[3,4-b]pyridin-3-yl]pyrimidin-5-yl}-carbamate, reference compound], in data set [1], the Mass loss entry was “about 8 % by weight”. In addition, in data set [2] (listed as mesomorphous form), the “Stability of the solid form (thermodynamic / storage)” value is “metastable”.

On to `COC(=O)Nc1c(N)nc(-c2nn(Cc3ccccc3F)c3ncccc23)nc1N` [amorphous, methyl {4,6-diamino-2-[1-(2-fluorobenzyl)-1H-pyrazolo[3,4-b]pyridin-3-yl]pyrimidin-5-yl}carbamate], for which the Mass loss result in data set [1] is on record as “about 10 % by weight”.

For the molecule `COC(=O)Nc1c(N)nc(-c2nn(Cc3ccccc3F)c3ncccc23)nc1N` [modification III, methyl {4,6-diamino-2-[1-(2-fluorobenzyl)-1H-pyrazolo[3,4-b]pyridin-3-yl]pyrimidin-5-yl}carbamate], the Mass loss in data set [1] is less than 0.5 % by weight.

Molecule `COC(=O)Nc1c(N)nc(-c2nn(Cc3ccccc3F)c3ncccc23)nc1N` [modification IV, methyl {4,6-diamino-2-[1-(2-fluorobenzyl)-1H-pyrazolo[3,4-b]pyridin-3-yl]pyrimidin-5-yl}carbamate] yielded a Mass loss in data set [1] of less than 1 % by weight.
